Series [1] concerns mammary tumors. The experiment in a line: Tumor development in DMBA-treated rats given weekly oral intubations of artemisinin. It counts as in vivo, Female Sprague-Dawley rats. The settings on record: for Percentage of Animals with Tumors: artemisinin 10 mg/kg weekly oral intubation. As for the experimental part:
This Example describes a representative method for preventing or slowing the development of cancer in rats exposed to a carcinogen by administering artemisinin by weekly oral intubations.
Materials and Methods: Female Sprague-Dawley rats were administered a single intragastric dose of the carcinogen 7,12-dimethylbenz[a]anthracene (DMBA; Sigma Chemicals, St Louis, Mo.; 50 mg/kg body weight) suspended in olive oil (Sigma Chemicals, St Louis, Mo.; 25 mg/ml). Animals were randomly assigned to two treatment groups to receive either weekly oral intubations of artemisinin (Holley Pharmaceuticals, Fullerton, Calif.; 10 mg/kg at 10 mg/ml of olive oil) or olive oil (control). Artemisinin treatment began a week after DMBA administration. Animals were palpated for the presence of mammary tumors once weekly. The time and site of detection and size were recorded for each tumor in an animal.

Series [2] has as its system mammary tumors. Kind of series: Tumor development in DMBA-treated rats given artemisinin mixed in food. The class given is in vivo, Female rats. The settings on record: artemisinin 0.05% in food, approximately 10 mg/kg/day. The text has this:
This Example describes a representative method for preventing or slowing the development of cancer in rats exposed to a carcinogen by providing artemisinin mixed in food.
Materials and Methods: Female rats were similarly treated with the carcinogen DMBA, as described in EXAMPLE 1. The rats were randomly assigned to two treatment groups. Artemisinin (0.05%) was mixed in the food of one group of animals starting the day immediately after DMBA treatment. Daily intake of artemisinin, based on the amount of food eaten each day, was estimated to be approximately 10 mg/kg/day. The other group of animals (controls) was given regular rat food.

The conditions of series [3]: cancer patient; oral 50 mg per day, intramuscular 60 mg/day, over 9 months; cited from earlier work.

Take `C[C@@H]1CC[C@H]2[C@@H](C)C(=O)O[C@@H]3O[C@@]4(C)CC[C@@H]1[C@]32OO4` [Artemisinin, artemisinin]: the “Percentage of Animals with Tumors” value in the series on mammary tumors [1] (week 6 after DMBA) was 0%; in the series with mammary tumors [1] (week 6 after DMBA, listed as artemisinin), “none”; in the series on mammary tumors [1] (week 7 after DMBA) it was 9%; in the series with mammary tumors [1] (week 9 after DMBA) it was 9%; with mammary tumors [1] (week 10 after DMBA) it was 9%; with mammary tumors [1] (week 11 after DMBA), 9%. The “Percentage of Animals with Tumors” value with mammary tumors [1] (week 12 after DMBA) was found to be 27%; in the series on mammary tumors [1] (week 13 after DMBA), 45%; in the series on mammary tumors [1] (week 16 after DMBA) it was 45%; in the series with mammary tumors [1] (week 17 after DMBA), 45%; with mammary tumors [1] (week 20 after DMBA), 54%; with mammary tumors [1] (week 29 after DMBA), 64%. The “Percentage of Animals with Tumors” value stood at 64% in the series on mammary tumors [1] (week 31 after DMBA); 64% in the series on mammary tumors [1] (week 38 after DMBA); 0% in the series with mammary tumors [2] (week 6 after DMBA); 0% in the series on mammary tumors [2] (week 7 after DMBA); 0% with mammary tumors [2] (week 8 after DMBA); 0% in the series with mammary tumors [2] (week 9 after DMBA). In addition, the “Percentage of Animals with Tumors” value was 0% in the series on mammary tumors [2] (week 10 after DMBA) and “none” in the series with mammary tumors [2] (week 10 after DMBA, listed as artemisinin). Further, the “Appearance of tumors in carcinogen-treated animals” value with mammary tumors [1] (weekly artemisinin treatment vs olive oil controls) is recorded as “delayed the appearance of tumors”.
Regarding `C[C@H]1[C@H](OC(=O)CCC(=O)O)O[C@@H]2O[C@@]3(C)CC[C@H]4[C@H](C)CC[C@@H]1[C@@]24OO3` [artesunate], in series [3], the Adverse side effects result was “No apparent adverse side effects”.

Values taken from patent US20080119542A1, “METHODS OF USING ARTEMISININ-LIKE COMPOUNDS TO PREVENT OR DELAY THE APPEARANCE OF CANCER” (UNIVERSITY OF WASHINGTON, priority 2002, published 2008).
